# Experimental data: patent US20220339135A1, “COMPOSITIONS AND METHODS FOR MODULATING AN INFLAMMATORY RESPONSE” (Enzychem Lifesciences Corporation, priority 2019, published 2022)
# How the values were obtained:
# [1] = tested on: p47phox in Raw264.7 cells; experiment: LPS-induced p47phox recruitment; format: cell-based; details: LPS/PLAG treatment
# Description: Raw264.7 cells were divided into two groups: 1) LPS treated group and 2) LPS/PLAG treated group. For the LPS treated group, cells were treated with 100 μg/ml of DMSO (as solvent control) for 1 hour and treated with LPS (100 ng/ml) for 15, 30, 60, and 120 minutes. For LPS/PLAG treated group, cells were treated with PLAG (100 μg/ml) for 1 hour and treated with LPS (100 ng/ml) for 15, 30, 60, and 120 minutes. Cells were then fixed and stained using rat anti-TLR4/MD2 antibody with Alexa488-conjugated anti-rat IgG secondary antibody. These were analyzed by confocal microscopy. Raw264.7 cells stimulated under the same conditions were fixed, permeabilized, and stained with CM-H2DCFDA, the LYSO-ID® Lysosomal Detection Kit and rabbit anti-p47phox. Confocal microscopy was performed; all data shown represent one experiment performed in triplicate.
# [2] = tested on: Pseudomonas aeruginosa strain K (PAK) in BALF; experiment: PAK clearance in AC regimen-induced immunocompromised mice; format: in vivo; details: PLAG 250 mg/kg oral once daily 5 days, BALF 3 and 6 hours after infection
# Description: To establish a chemotherapy-induced immunocompromised mice model, the mice were administered a single intravenous injection of 50 mg/kg cyclophosphamide and 2.5 mg/kg doxorubicin (AC regimen). After 5 days from the injection of AC regimen, blood samples were collected from an intra-orbital vein using EDTA capillary tubes, and the number of circulating neutrophils was measured by complete blood cell count (CBC) analysis using Mindray BC-5300 auto-hematology analyzer (Shenzhen Mindray Bio-medical Electronics, China). Pseudomonas aeruginosa strain K (PAK) was grown overnight in LB broth at 37° C. with agitation and then harvested by centrifugation at 13,000×g for 2 minutes. […] The diluted bacteria were administrated to the mice by intranasal injection. Bronchoalveolar lavage fluid (BALF) samples were collected from the PAK-infected mice at different time points after infection in normal mice model and in AC regimen-induced immunocompromised mice model. […] The number of viable bacteria in BALF was determined by counting the number of colonies formed in the plates. […] The BALF samples were harvested at 3 and 6 hours after the infection, and live PAK in BALF after AC regimen and AC regimen/PLAG treatment was determined by counting with colony-forming units (FIG. 6B).
# [3] = tested on: NET formation of neutrophil, BALF derived cells; experiment: NETosis of PAK-introduced BALF derived cells; format: cell-based, mice; details: PAK/PLAG vs PAK
# Description: 2 hours after PAK infection, BALF derived cells were harvested and detected extracellular DNA-elastase complex by using ELISA and visualized by using confocal microscopy (×400) or scanning electron microscope (SEM) (×8000). […] were washed with PBS and mounted in DAPI-containing fluorescence microscopy mounting medium (Invitrogen). Samples were analyzed with a laser scanning confocal microscope (Carl Zeiss, Oberkochen, Germany).
# [4] = tested on: total body irradiation by γ-ray; experiment: Survival rate and body weight of γ-ray radiated mice; format: in vivo
# Description: 11 weeks Balb/c mice (10 males and 10 females) were divided into two groups: 1) radiated group (6.5Gy of TBI by γ-ray) and 2) PLAG (250 mg/kg of PLAG) administrated group with radiation (6.5Gy of TBI by γ-ray) (FIG. 39A). 6.5Gy of TBI was radiated on Day 0 and 250 mpk of PLAG was orally administrated from day 0 to day 30 daily. The survival rate of the mice was recorded daily until day 30.
# (§1) 11 weeks Balb/c mice (10 males and 10 females) were divided into four groups: 1) radiated group (6.11Gy of TBI by γ-ray), 2) PLAG (10 mg/kg of PLAG) administrated group with radiation (6.11Gy of TBI by γ-ray), 3) PLAG (50 mg/kg of PLAG) administrated group with radiation (6.11Gy of TBI by γ-ray), and 4) PLAG (250 mg/kg of PLAG) administrated group with radiation (6.11Gy of TBI by γ-ray) (FIG. 40A). 6.11Gy of TBI was radiated on Day 0 and […] of PLAG was orally administrated from day 1 to day 30 daily. The survival rate of the mice, was recorded daily until day 30.
# as §1, with “by γ-ray).” for “by γ-ray) (FIG. 40A).”, “Day 0,” for “Day 0”, “daily. Body weight” for “daily. The survival rate”, “the mice” for “the mice,”
smiles,measurement,setting,value
"CCCCC/C=C\C/C=C\CCCCCCCC(=O)OC(COC(C)=O)COC(=O)CCCCCCCCCCCCCCC (racemic) [PLAG, 1-palmitoyl-2-linoleoyl-3-acetylglycerol]",p47phox recruitment initiated,[1],15 min
same,return to homeostatic levels of p47phox,[1],60 min
same,bacterial clearance (live PAK CFU in BALF),[2],significantly accelerates
same,NET formation of neutrophil,[3],accelerated
same,number of mice whose body weight loss is more than 10% and 20%,"[4]; 6.11Gy TBI, 50mpk and 250 mpk",significantly less number
same,body weight after radiation,"[4]; 6.11Gy TBI, PLAG 10 mg/kg",fluctuating and decreasing bodyweight
same,survival rate after 30 days of radiation,"[4]; 6.11Gy TBI, PLAG 10 mg/kg",5%
same,body weight loss,"[4]; 6.11Gy TBI, PLAG 50 mg/kg",less than 10%
same,survival rate after 30 days of radiation,"[4]; 6.11Gy TBI, PLAG 50 mg/kg",40%
same,body weight loss,"[4]; 6.11Gy TBI, PLAG 250 mg/kg",less than 10%
same,survival rate after 30 days of radiation,"[4]; 6.11Gy TBI, PLAG 250 mg/kg",80%
same,survival rate relative to the radiated group,"[4]; 6.5Gy TBI, PLAG 250 mg/kg",12 times
same,survival rate 30 days after radiation,"[4]; 6.5Gy TBI, PLAG 250 mg/kg daily day 0-30",60%
